Laboratory results as given in patent EP2594271A1, “2-[(3,5-difluoro-3'-methoxy-1,1'-biphenyl-4-yl)amino]nicotinic acid for the treatment of psoriasis” (Almirall, S.A., priority 2011, dated 2013).
“Also recorded” adds a separate entry of the source.

Assays:
[1] = set-up: species or system mice; conditions: mouse, in vivo, ip
[2] = test system: peripheral blood mononuclear cells; assay: in vitro assay using peripheral blood mononuclear cells; format: cell-based; conditions: compared with leflunomide
epidermal hyperplasia = assay: rat model of TPA-induced epidermal hyperplasia; format: in vivo, Wistar rats; conditions: rat dorsal skin
Experimental: A rat model of epidermal hyperplasia was used to test the pharmacological activity of 2-[(3,5-difluoro-3'-methoxy-1,1'-biphenyl-4-yl)amino]nicotinic acid.
Wistar rats (200- 250 g) were obtained from Harland (Sant Feliu de Codines, Spain) and maintained in standard Chow diet with light:dark cycles and allowed to feed ad libitum during all procedures. TPA (12-O-tetradecanoylphorbol-13-acetate) was purchased from Sigma Chemicals and a stock solution of 10 mg/ml was prepared in acetone.
On the morning of day 1, the back of each animal (n=5) was shaved so that at least three 2x2 sq cm nude skin areas were uncovered. Six hours later, 200 µL of acetone (vehicle) or a solution of TPA ([…]) in acetone was applied onto the skin by employing a silicone pad in which three 2x2 sq cm areas had been cut out. Area A received acetone (vehicle), whereas B and C received TPA. Twenty-four hours after TPA application, a solution of the active ingredient 2-[(3,5-difluoro-3'-methoxy-1,1'-biphenyl-4-yl)amino]nicotinic acid (1% in acetone) was applied to area C, whereas the remainder areas received acetone. Treatment continued for 7 days with daily application of 2-[(3,5-difluoro-3'-methoxy-1,1'-biphenyl-4-yl)amino]nicotinic acid or acetone. Six hours after last application, animals were sacrificed and skin was excised and processed for histological examination using H/E staining. Hyperplasia was evaluated following a score of 0 (normal skin thickness, 2-3 layers) to 3 (marked hyperplastic epidermis, >8 cell layers) by a blinded expert pathologist.

psoriasis = conditions: 190 subjects with active psoriatic arthritis and psoriasis, 24 weeks; people with mild to moderate psoriasis; cited from earlier work
[3] = topical 1% in acetone, 7 applications, histology day 8

Row | levels of bilirrubin in plasma [1] | levels of transaminases in plasma [1] | Compound | potency [2] | inflammation induced by TPA (dermal) (epidermal hyperplasia; [3]) | mixed perivascular mononuclear infiltration (macrophages, lymphocytes and mastocytes) (epidermal hyperplasia; [3]) | hyperplasia (histological score 0 to 3) (epidermal hyperplasia; topical once daily application of 1% in acetone for 7 days, H/E staining, day 8) | benefit compared with placebo (psoriasis)
1 | does not show an increase | does not show an increase | COc1cccc(-c2cc(F)c(Nc3ncccc3C(=O)O)c(F)c2)c1 [2-[(3,5-difluoro-3'-methoxy-1,1'-biphenyl-4-yl)amino]nicotinic acid] | much higher potency than leflunomide | counteracts; also recorded: able to reduce epidermal hyperplasia and dermal inflammation | greatly diminished | reverted; also recorded: counteracts; also recorded: able to reduce epidermal hyperplasia | –
2 | – | – | Cc1oncc1C(=O)Nc1ccc(C(F)(F)F)cc1 [leflunomide, 4-Isoxazolecarboxamide, 5-methyl-N-[4-(trifluoromethyl)phenyl]-] | – | – | – | – | only a moderate benefit compared with placebo
